Measurements from ChEMBL document CHEMBL5137031, “The structure-based design of peptidomimetic inhibitors against SARS-CoV-2 3C like protease as Potent anti-viral drug candidate” (Eur J Med Chem, 2022).

What was measured:
[1] = target: Replicase polyprotein 1ab (Severe acute respiratory syndrome coronavirus 2, UniProt P0DTD1); experiment: Inhibition of SARS-CoV-2 3CL protease expressed in Escherichia coli BL21 (DE3) cells assessed as change in relative fluorescence unit using MCA-TSAVLQSGFRK(DNP)M as substrate preincubated for 30 mins followed by substrate addition and measured after 2 hrs by microplate reader based FRET assay
A549 = experiment: Cytotoxicity against human A549 cells assessed as inhibition of cell growth measured after 24 hrs by MTT assay; format: toxicity, cell-based; settings: a549, 24 h
SARS-CoV-2 [2] = experiment: Antiviral activity against SARS-CoV-2 WIV04 infected in African green monkey Vero cells assessed as inhibition of viral proliferation measured at 24 hrs post infection by qRT-PCR analysis; format: functional, organism-based; settings: Severe acute respiratory syndrome coronavirus 2, WIV04, Vero
SARS-CoV-2 [3] = experiment: Antiviral activity against SARS-CoV-2 WIV04 infected in African green monkey Vero cells assessed as log reduction in viral RNA at 10 uM measured at 24 hrs post infection by qRT-PCR analysis; format: functional, Severe acute respiratory syndrome coronavirus 2
Vero = experiment: Cytotoxicity against African green monkey Vero cells assessed as reduction in cell viability incubated for 48 hrs by CCK8 assay; format: toxicity, cell-based; settings: chlorocebus sabaeus

| Structure (SMILES) | IC50 [1] [µM] | Activity (A549) | EC50 (SARS-CoV-2 [2]) [µM] | log(activity) (SARS-CoV-2 [3]) | Activity (Vero) |
| --- | --- | --- | --- | --- | --- |
| CC(C)[C@H](NC(=O)/C=C/c1ccccc1)C(=O)N[C@H](C=O)C[C@@H]1CCCNC1=O | 6.93 | Non-Toxic | > 3 | – | – |
| CC(C)C[C@H](NC(=O)/C=C/c1ccccc1)C(=O)N[C@H](C=O)C[C@@H]1CCCNC1=O | 0.321 | Non-Toxic | 1.51 | 2 | Non-Toxic |
| O=C[C@H](C[C@@H]1CCNC1=O)NC(=O)[C@H](Cc1cccc(F)c1)NC(=O)c1cc2ccccc2[nH]1 | 0.858 | Non-Toxic | 0.36 | – | – |
| CC(C)C[C@H](NC(=O)[C@@H](NC(=O)c1cc2ccccc2[nH]1)C(C)C)C(=O)N[C@H](C=O)C[C@@H]1CCCNC1=O | 0.295 | Non-Toxic | > 3 | – | – |
| CCC[C@H](NC(=O)/C=C/c1ccccc1)C(=O)N[C@@H](CC(C)C)C(=O)N[C@H](C=O)C[C@@H]1CCCNC1=O | 0.543 | Non-Toxic | > 3 | – | – |
| CC(C)C[C@H](NC(=O)[C@@H](NC(=O)C1CCOCC1)C(C)C)C(=O)N[C@H](C=O)C[C@@H]1CCCNC1=O | 0.285 | Non-Toxic | > 3 | – | – |
| C#CC[C@H](NC(=O)/C=C/c1ccccc1)C(=O)N[C@H](C=O)C[C@@H]1CCCNC1=O | 3.28 | Non-Toxic | > 3 | – | – |
| CC(C)C[C@H](NC(=O)[C@H](CC1CCCCC1)NC(=O)/C=C/c1ccccc1)C(=O)N[C@H](C=O)C[C@@H]1CCCNC1=O | 1.5 | Non-Toxic | 1.67 | 2 | Non-Toxic |
| CC(C)C[C@H](NC(=O)[C@@H](NC(=O)c1ccco1)C(C)C)C(=O)N[C@H](C=O)C[C@@H]1CCCNC1=O | 0.234 | Non-Toxic | > 3 | – | – |
| Cc1ccc(/C=C/C(=O)N[C@H](C(=O)N[C@@H](CC(C)C)C(=O)N[C@H](C=O)C[C@@H]2CCCNC2=O)C(C)C)cc1 | 0.196 | Non-Toxic | > 3 | – | – |
| CC(C)C[C@H](NC(=O)[C@@H](NC(=O)C1CCCCC1)C(C)C)C(=O)N[C@H](C=O)C[C@@H]1CCCNC1=O | 1.41 | Non-Toxic | > 3 | – | – |
| CC(C)C[C@H](NC(=O)[C@@H](NC(=O)/C=C/c1ccc(-c2ccccc2)cc1)C(C)C)C(=O)N[C@H](C=O)C[C@@H]1CCCNC1=O | 0.295 | Non-Toxic | > 3 | – | – |
| CC(C)C[C@H](NC(=O)[C@@H](NC(=O)c1cccnc1)C(C)C)C(=O)N[C@H](C=O)C[C@@H]1CCCNC1=O | 0.64 | Non-Toxic | > 3 | – | – |
| C#CC[C@H](NC(=O)/C=C/c1ccccc1)C(=O)N[C@H](C=O)C[C@@H]1CCNC1=O | 3.89 | Non-Toxic | > 3 | – | – |
| CC(C)C[C@H](NC(=O)[C@@H](NC(=O)CCc1ccccc1)C(C)C)C(=O)N[C@H](C=O)C[C@@H]1CCCNC1=O | 0.199 | Non-Toxic | > 3 | – | – |
| CC(C)C[C@H](NC(=O)[C@@H](NC(=O)c1ccc(C(F)(F)F)cc1)C(C)C)C(=O)N[C@H](C=O)C[C@@H]1CCCNC1=O | 1.43 | Non-Toxic | > 3 | – | – |
| CC(C)(C)[C@H](NC(=O)/C=C/c1ccccc1)C(=O)N[C@H](C=O)C[C@@H]1CCCNC1=O | 3.44 | Non-Toxic | > 3 | 2 | – |
| CC(C)C[C@H](NC(=O)[C@@H](NC(=O)/C=C/c1ccccc1)C(C)C)C(=O)N[C@H](C=O)C[C@@H]1CCCNC1=O | 0.281 | Non-Toxic | > 3 | – | – |
| CC(C)C[C@H](NC(=O)[C@@H](NC(=O)c1ccc[nH]1)C(C)C)C(=O)N[C@H](C=O)C[C@@H]1CCCNC1=O | 0.172 | Non-Toxic | > 3 | – | – |
| O=C[C@H](C[C@@H]1CCCNC1=O)NC(=O)[C@@H](NC(=O)/C=C/c1ccccc1)c1ccccc1 | 2.04 | Non-Toxic | > 3 | – | – |
| CC(C)C[C@H](NC(=O)[C@@H](NC(=O)c1ccc(F)cc1)C(C)C)C(=O)N[C@H](C=O)C[C@@H]1CCCNC1=O | 0.197 | Non-Toxic | > 3 | – | – |
| CC(C)C[C@H](NC(=O)[C@@H](NC(=O)/C=C/c1ccc(N(C)C)cc1)C(C)C)C(=O)N[C@H](C=O)C[C@@H]1CCCNC1=O | 0.592 | Non-Toxic | > 3 | – | – |

| Structure (SMILES) | IC50 [1] [µM] | Activity (A549) | EC50 (SARS-CoV-2 [2]) [µM] | log(activity) (SARS-CoV-2 [3]) | Activity (Vero) |
| --- | --- | --- | --- | --- | --- |
| CC(C)C[C@H](NC(=O)[C@@H](NC(=O)/C=C/c1ccc(C(C)C)cc1)C(C)C)C(=O)N[C@H](C=O)C[C@@H]1CCCNC1=O | 0.23 | Non-Toxic | > 3 | – | – |
| CC[C@H](C)[C@H](NC(=O)/C=C/c1ccccc1)C(=O)N[C@@H](CC(C)C)C(=O)N[C@H](C=O)C[C@@H]1CCCNC1=O | 0.357 | Non-Toxic | > 3 | – | – |
| CC(C)C[C@H](NC(=O)[C@@H](NC(=O)c1ccccc1)C(C)C)C(=O)N[C@H](C=O)C[C@@H]1CCCNC1=O | 0.257 | Non-Toxic | > 3 | – | – |
| CC(C)C[C@H](NC(=O)[C@@H](NC(=O)c1ccc(-c2ccccc2)cc1)C(C)C)C(=O)N[C@H](C=O)C[C@@H]1CCCNC1=O | 0.404 | Non-Toxic | > 3 | – | – |
| CC(C)C[C@H](NC(=O)[C@@H](NC(=O)c1ccc(Cl)cc1)C(C)C)C(=O)N[C@H](C=O)C[C@@H]1CCCNC1=O | 0.148 | Non-Toxic | > 3 | – | – |
| CC(C)C[C@H](NC(=O)[C@@H](NC(=O)c1ccc2cc[nH]c2c1)C(C)C)C(=O)N[C@H](C=O)C[C@@H]1CCCNC1=O | 0.221 | Non-Toxic | > 3 | – | – |
| CC(C)C[C@H](NC(=O)/C=C/c1ccccc1)C(=O)N[C@H](C=O)C[C@@H]1CCNC1=O | 0.374 | Non-Toxic | 1.06 | 2 | Non-Toxic |
| CC(C)C[C@H](NC(=O)[C@@H](NC(=O)c1ccccn1)C(C)C)C(=O)N[C@H](C=O)C[C@@H]1CCCNC1=O | 0.565 | Non-Toxic | > 3 | – | – |
| CC(C)C[C@H](NC(=O)[C@@H](NC(=O)/C=C/c1ccccc1F)C(C)C)C(=O)N[C@H](C=O)C[C@@H]1CCCNC1=O | 0.173 | Non-Toxic | > 3 | – | – |
| CC(C)C[C@H](NC(=O)[C@@H](NC(=O)/C=C/c1cccc(F)c1)C(C)C)C(=O)N[C@H](C=O)C[C@@H]1CCCNC1=O | 0.255 | Non-Toxic | > 3 | – | – |
| O=C[C@H](C[C@@H]1CCCNC1=O)NC(=O)[C@H](CC1CC1)NC(=O)/C=C/c1ccccc1 | 0.298 | Non-Toxic | 1.13 | – | Non-Toxic |
| CC(C)C[C@H](NC(=O)[C@@H](NC(=O)c1ccoc1)C(C)C)C(=O)N[C@H](C=O)C[C@@H]1CCCNC1=O | 0.173 | Non-Toxic | > 3 | – | – |
| CCCC[C@H](NC(=O)/C=C/c1ccccc1)C(=O)N[C@H](C=O)C[C@@H]1CCNC1=O | 0.373 | Non-Toxic | 1.11 | 2 | Non-Toxic |
| CC(C)C[C@H](NC(=O)[C@@H](NC(=O)/C=C/c1ccc(F)cc1)C(C)C)C(=O)N[C@H](C=O)C[C@@H]1CCCNC1=O | 0.307 | Non-Toxic | > 3 | – | – |
| C[C@H](NC(=O)/C=C/c1ccccc1)C(=O)N[C@H](C=O)C[C@@H]1CCCNC1=O | 12.3 | Non-Toxic | > 3 | – | – |
| CC(C)C[C@H](NC(=O)[C@@H](NC(=O)c1ccc2ccccc2c1)C(C)C)C(=O)N[C@H](C=O)C[C@@H]1CCCNC1=O | 0.271 | Non-Toxic | 1.36 | 2 | Non-Toxic |
| CC(C)C[C@H](NC(=O)[C@@H](NC(=O)c1ccc([N+](=O)[O-])cc1)C(C)C)C(=O)N[C@H](C=O)C[C@@H]1CCCNC1=O | 0.209 | Non-Toxic | > 3 | – | – |
| CC(C)C[C@H](NC(=O)[C@@H](NC(=O)c1ccncc1)C(C)C)C(=O)N[C@H](C=O)C[C@@H]1CCCNC1=O | 0.153 | Non-Toxic | > 3 | – | – |
| CCCC[C@H](NC(=O)/C=C/c1ccccc1)C(=O)N[C@H](C=O)C[C@@H]1CCCNC1=O | 0.277 | Non-Toxic | > 3 | – | – |
| C=CC[C@H](NC(=O)/C=C/c1ccccc1)C(=O)N[C@H](C=O)C[C@@H]1CCCNC1=O | 1.34 | Non-Toxic | > 3 | – | – |
| COc1ccc(/C=C/C(=O)N[C@H](C(=O)N[C@@H](CC(C)C)C(=O)N[C@H](C=O)C[C@@H]2CCCNC2=O)C(C)C)cc1 | 0.249 | Non-Toxic | > 3 | – | – |
